Patent US7741484B2, “Process for synthesis of phenoxy diaminopyrimidine derivatives” (Roche Palo Alto LLC, priority 2005, dated 2010)

Target: T1, rat P2X3 receptor (Rattus norvegicus, UniProt P49654)
T1 construct: expressed in transfected cells; host or cells: CHO-K1
T1 sequence (P49654 1-397): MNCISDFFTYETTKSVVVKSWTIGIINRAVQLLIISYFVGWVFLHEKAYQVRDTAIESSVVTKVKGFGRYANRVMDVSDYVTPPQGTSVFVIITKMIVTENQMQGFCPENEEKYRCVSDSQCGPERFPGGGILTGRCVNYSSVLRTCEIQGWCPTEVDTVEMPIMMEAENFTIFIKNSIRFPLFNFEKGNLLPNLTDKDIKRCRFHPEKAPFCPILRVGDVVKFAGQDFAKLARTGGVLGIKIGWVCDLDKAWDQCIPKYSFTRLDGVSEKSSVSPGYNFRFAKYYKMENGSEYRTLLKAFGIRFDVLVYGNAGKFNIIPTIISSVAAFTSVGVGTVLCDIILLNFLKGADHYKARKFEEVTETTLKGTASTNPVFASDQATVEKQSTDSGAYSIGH
Assay: P2X3 FLIPR (Fluorometric Imaging Plate Reader) assay, inhibition of α,β-meATP-evoked calcium fluorescence
Format: cell-based
Conditions: CHO-K1 cells transfected with cloned rat P2X3; agonist α,β-meATP 1 μM; Fluo-3 AM; read-out: pIC50 for the P2X3 receptor (converted)
Protocol: CHO-K1 cells were transfected with cloned rat P2X3 or human P2X2/3 receptor subunits and passaged in flasks. 18-24 hours before the FLIPR experiment, cells were released from their flasks, centrifuged, and resuspended in nutrient medium at 2.5×10^5 cells/ml. The cells were aliquoted into black-walled 96-well plates at a density of 50,000 cells/well and incubated overnight in 5% CO2 at 37° C. On the day of the experiment, cells were washed in FLIPR buffer (calcium- and magnesium-free Hank's balanced salt solution, 10 mM HEPES, 2 mM CaCl2, 2.5 mM probenecid; FB). Each well received 100 μl FB and 100 μl of the fluorescent dye Fluo-3 AM [2 μM final conc.]. […]
Test compounds (dissolved in DMSO at 10 mM and serially diluted with FB) or vehicle were added to each well (25 μl of a 4× solution) and allowed to equilibrate for 20 minutes at room temperature. The plates were then placed in the FLIPR and a baseline fluorescence measurement (excitation at 488 nm and emission at 510-570 nm) was obtained for 10 seconds before a 100 μl/well agonist or vehicle addition. […] Fluorescence was measured for an additional 2 minutes at 1 second intervals after agonist addition. A final addition of ionomycin (5 μM, final concentration) was made to each well of the FLIPR test plate to establish cell viability and maximum fluorescence of dye-bound cytosolic calcium. […]

`COc1cc(C(C)C)c(Oc2cnc(N)nc2N)cc1I` [5-(5-Iodo-2-isopropyl-4-methoxy-phenoxy)-pyrimidine-2,4-diamine] was tested, and the IC50 was roughly 0.01 µM.
